Source: patent US11219641B2 («NORMOPHARM» LIMITED LIABILITY COMPANY [RU/RU], priority 2017, dated 2022)
Like-named read-outs stand apart in the source and are kept apart here.

Assays:
[1] = tested on: model of chronic alcohol intoxication; assay: Neurological testing (OFT, EPMT), prophylaxis series; assay type: in vivo, Wistar rats
Procedure: (§1) Creating a model of alcohol dependence.
(§2) Preparation dosage and application. […] Each group contained 21 animals.
(§3) Neurological testing. A general assessment of somatic and neurological status of animals was performed in all examined groups.
(§4) In the open field test (OFT), vertical activity, horizontal activity, frequency of dipping into the holes (a hole exploratory test or “burrow reflex”), grooming frequency, and frequency of central zone entries were registered. In OFT, an animal was placed in one and the same square located near the wall. An exposure time for each animal in the model was 5 min. A round OF represented an arena 1 m in diameter and a wall of 0.4 m height with the floor divided into sectors. Three zones were marked in the open field: central, intermediate (6 sectors), peripheral (12 sectors). Two 60 W lamps were located at a height of 1.5 m from the chamber floor over the central field segments. Horizontal activity in the central and peripheral zone, vertical activity, grooming frequency, frequency of defecation, burrow reflexes were fixed during the test. The walls and floor were treated with a wet and dry cloth after each animal.
The time spent in the open and closed arms and in the maze center, duration of grooming in the closed arm, a number of grooming episodes in the closed arm were registered during the elevated plus maze test (EPMT). […]

[2] = tested on: model of chronic alcohol intoxication; settings: prophylaxis series
From the text: as §1, §2

[3] = tested on: model of chronic alcohol intoxication; assay: Observation of abstinence after alcohol withdrawal, treatment series; settings: after alcohol solution withdrawal, 5, 10, 30 mg/kg
Procedure: Creating a model of alcohol dependence. The criterion for selecting rats, along with the absence of obvious abnormalities in the state and behavior, was an initial preference for 6% ethyl alcohol over tap water. To determine this preference, a preliminary experiment was conducted during 3 days in the individual cages with a free access to both liquids. Once a selection has been done, 6% ethyl alcohol was offered as the only source of liquid, a week later the concentration of alcohol was increased to 15%. After 2 weeks, alcohol was replaced by tap water.
Preparation dosage and application. The experiment was carried out in two series «prophylaxis» and «treatment» with four groups in each series: (1) dose 30 mg/kg (experimental group 1), (2) dose 10 mg/kg (experimental group 2), (3) dose 5 mg/kg (experimental group 3), (4) placebo group. In the experiments of “prophylaxis” series, the preparation was introduced concurrently with model creation, while in the experiments of “treatment” series it was done after model creation. Each group contained 21 animals. Said preparation was introduced intragastrically via a probe once a day in volume of 0.5 ml per each animal for 14 days.
“Treatment” represents a more rigid model of alcohol intoxication for evaluation of the preparation efficacy.

[4] = Wistar rats, literature (Ostrenko et al.); cited from earlier work
[5] = tested on: damaged neurocytes of the pyramidal layer of the forebrain cortex; assay: Morphometric histological analysis of forebrain cortex neurocytes, prophylaxis series; assay type: in vivo, Wistar rats; settings: 5 mg/kg, prophylactic application; placebo group 34.8%
Procedure: as §1, §2
Histological analysis of the nervous tissue. The brain after craniotomy was wholly removed and fixed in a 10% solution of neutral formalin, in 24 hours a zone of precentral gyrus of the forebrain was exposed by frontal incisions. Preparation of nerve tissue specimens was performed according to a standard procedure (dehydration in ethyl alcohol, xylene) with subsequent fabrication of paraffin blocks. Histological sections of 6 μm thick made on a sliding Microm microtome were stained with hematoxylene and eosin. Section duplicates were Nissl-stained with a reagent kit (Biovitrum Co.) and impregnated with silver. Histological sections were morphometrically examined using BioVision image analyzer (Austria) for counting damaged neurocytes of the pyramidal layer of the forebrain cortex in 10 various fields of vision with subsequent statistical processing of the results. Microphotographs were obtained with the help of the research Micros microscope and DCM 900 digital ocular camera.

[6] = tested on: model of chronic alcohol intoxication; settings: after 7 days, treatment series
Procedure: (§5) Materials and Methods. White Wistar male rats weighing 200-250 g (n=168) were used as a model object. The investigation was approved by ethical committee of Federal State Budgetary Educational Institution of Higher Professional Education “Ivanovo State Medical Academy”, the Ministry of Health of the Russian Federation” on Mar. 15, 2016; all procedures and experiments on rats were conducted in compliance with the international rules of treating animals used for scientific purposes. Animals were housed in equal rooms in cages of 7 rats in each at 19-21° C. Animals were given 40-50 g of a mixed fodder per animal every day.
as §1, §2, §3
The time spent in the open and closed arms and in the maze center, duration of grooming in the closed arm, a number of grooming episodes in the closed arm were registered during the elevated plus maze test (EPMT). The tested object was placed in the center of EPM with its nose towards the open arm. The time of testing the animals in the EPM amounted to 5 min. The apparatus used in the test consisted of two arms with an open area at the site of their crossing. One of the maze arms had closed compartments. The maze was installed at a height of 1 m from the floor. The time spent in the open and closed arm, grooming frequency, and rearing frequency were registered.

[7] = tested on: model of chronic alcohol intoxication; settings: treatment series
Procedure: as §5, §1, §2, §3, §4

[8] = 5 mg/kg intragastrically once a day
[9] = 10 mg/kg intragastrically once a day
[10] = 30 mg/kg intragastrically once a day
[11] = 5 mg/kg intragastrically once a day, after 7 days
[12] = 10 mg/kg intragastrically once a day, after 7 days
[13] = 30 mg/kg intragastrically once a day, after 7 days

O=C1O[C@H]([C@@H](O)CO)C([O-])=C1O.[Li+] [lithium ascorbate]
dose from which effective prophylaxis of neurological disorders was noted ([1]; introduced with alcohol for 2 weeks): ≥ 5 mg/kg
vertical activity in neurological tests ([1]; various dosages during 2 weeks): increased vertical activity
catecholamine content in the animal blood ([2]; applied together with alcohol): inhibited the increase of catecholamine content
MDA levels in blood serum [2]: decreased MDA levels
cramps during abstinence [3]: No cramps were noted
number of aggressive incidents during abstinence [3]: reduced the number of aggressive incidents
toxicity class [4]: Class 5
amount of the damaged cortex cells [5]: 18.5%
Grooming frequency (EPMT) [6, 8]: 9.1 times
Time spent in the closed arm (EPMT) [6, 8]: 270.67 s
Time spent in the open arm (EPMT) [6, 8]: 27.73 s
Grooming frequency (EPMT) [6, 9]: 6.3 times
Time spent in the closed arm (EPMT) [6, 9]: 265.19 s
Time spent in the open arm (EPMT) [6, 9]: 34.81 s
Vertical activity (EPMT) [6, 9]: 1.5
Grooming frequency (EPMT) [6, 10]: 5.8 times
Time spent in the closed arm (EPMT) [6, 10]: 259.01 s
Time spent in the open arm (EPMT) [6, 10]: 38.26 s
Frequency of dipping into the hole (OFT) [7, 11]: 1.1 times
Grooming frequency (OFT) [7, 11]: 8.9 times
Horizontal locomotor activity central (OFT) [7, 11]: 1.0
Horizontal locomotor activity peripheral (OFT) [7, 11]: 19.3
Number of boluses (OFT) [7, 11]: 15.1 pcs
Frequency of dipping into the hole (OFT) [7, 12]: 1.9 times
Horizontal locomotor activity central (OFT) [7, 12]: 1.8
Number of boluses (OFT) [7, 12]: 12.6 pcs
Vertical locomotor activity (OFT) [7, 12]: 1.4
Frequency of dipping into the hole (OFT) [7, 13]: 2.0 times
Horizontal locomotor activity central (OFT) [7, 13]: 1.9
Number of boluses (OFT) [7, 13]: 12.2 pcs
Vertical locomotor activity (OFT) [7, 13]: 1.6
dose at which adequate efficacy was noted, treatment purposes ([7]; doses 5, 10, 30 mg/kg compared): 5 mg/kg
